# Laboratory results published in patent US5824771A, “Cyclic CRF agonists” (The Salk Institute for Biological Studies, priority 1997, dated 1998).
# Where two headings read alike, the source gives them in different places. Bridge positions count the residues as written; N and C are the ends. Square brackets hold non-standard residues; d marks the D form. Peptide text beside a SMILES is read from it. Nle = CCCC[C@H](N)C(=O)O
# System: rat anterior pituitary cells
# Experiment: In vitro stimulation of ACTH and β-endorphin secretion by cultured rat pituitary cells, potency compared with oCRF (Standard) or r/hCRF
# Assay type: cell-based
# Conditions: for in vitro biopotency, comparison in words: compared with the Standard or with a named analog
# Procedure: The cyclic CRF agonists are examined for their effects on the secretion of ACTH and β-endorphin in vitro and also in vivo. […] In vivo testing is carried out using the general procedure set forth in C. Rivier et al., Science, 218, 377 (1982).
# [1] = relative to the laboratory Standard (synthetic oCRF), cultured rat pituitary cells, limits in parentheses
smiles,measurement,setting,value
"CC[C@H](C)[C@H](NC(=O)[C@@H]1CCCN1C(=O)[C@@H]1CCCN1C(C)=O)C(=O)N[C@@H](CO)C(=O)N[C@@H](CC(C)C)C(=O)N[C@@H](CC(=O)O)C(=O)N[C@@H](CC(C)C)C(=O)N[C@H](C(=O)N[C@H](Cc1ccccc1)C(=O)N[C@@H](Cc1c[nH]cn1)C(=O)N[C@@H](CC(C)C)C(=O)N[C@@H](CC(C)C)C(=O)N[C@@H](CCCNC(=N)N)C(=O)N[C@@H](CCC(=O)O)C(=O)N[C@@H](CCSC)C(=O)N[C@@H](CC(C)C)C(=O)N[C@@H](CCC(=O)O)C(=O)N[C@@H](CCSC)C(=O)N[C@@H](C)C(=O)N[C@@H](CCCCN)C(=O)N[C@@H](C)C(=O)N[C@@H](CCC(=O)O)C(=O)N[C@@H](CCC(N)=O)C(=O)N[C@@H](CCC(=O)O)C(=O)N[C@@H](C)C(=O)N[C@@H](CCC(=O)O)C(=O)N[C@H]1CCC(=O)NCCCC[C@@H](C(=O)N[C@@H](CC(N)=O)C(=O)N[C@@H](CCCNC(=N)N)C(=O)N[C@@H](CC(C)C)C(=O)N[C@@H](CC(C)C)C(=O)N[C@@H](CC(C)C)C(=O)N[C@@H](CCC(=O)O)C(=O)N[C@@H](CCC(=O)O)C(=O)N[C@@H](C)C(N)=O)NC(=O)[C@H](C)NC(=O)[C@H](C)NC1=O)[C@@H](C)O [(cyclo 30-33)[Ac-Pro^4, D-Phe^12, Glu^30, Lys^33]-AHC(4-41)] (Ac-PPISLDLT[dF]HLLREMLEMAKAEQEAEEAAKNRLLLEEA-NH2; lactam 27-30)",in vitro potency to stimulate secretion of ACTH relative to the Standard,[1],about 7.5 times
CCCC[C@H](NC(=O)[C@H](CCC(=O)O)NC(=O)[C@@H](NC(=O)[C@H](CCCC)NC(=O)[C@H](CC(N)=O)NC(=O)[C@H](CCCNC(=N)N)NC(=O)[C@H](CC(C)C)NC(=O)[C@H](CC(C)C)NC(=O)[C@H](Cc1c[nH]cn1)NC(=O)[C@@H](Cc1ccccc1)NC(=O)[C@@H](NC(=O)[C@H](CC(C)C)NC(=O)[C@H](CC(=O)O)NC(=O)[C@@H](NC(=O)[C@H](CO)NC(=O)[C@@H](NC(=O)[C@H]1CCCN1C(=O)[C@@H]1CCCN1C(C)=O)[C@@H](C)CC)[C@@H](C)CC)[C@@H](C)O)[C@@H](C)CC)C(=O)N[C@@H](C)C(=O)N[C@@H](CCCNC(=N)N)C(=O)N[C@@H](CC(N)=O)C(=O)N[C@@H](CCC(=O)O)C(=O)N[C@@H](CC(N)=O)C(=O)N[C@@H](CCC(N)=O)C(=O)N[C@@H](CCCNC(=N)N)C(=O)N[C@@H](CCC(=O)O)C(=O)N[C@H]1CCC(=O)NCCCC[C@@H](C(=O)N[C@@H](CC(N)=O)C(=O)N[C@@H](CCCNC(=N)N)C(=O)N[C@@H](CCCCN)C(=O)N[C@@H](Cc2ccc(O)cc2)C(=O)N[C@@H](CC(C)C)C(=O)N[C@@H](CC(=O)O)C(=O)N[C@@H](CCC(=O)O)C(=O)N[C@H](C(N)=O)C(C)C)NC(=O)[C@@H](C)NC(=O)[C@H](C)NC1=O [Example 8 A D-Ala^32 analog] (Ac-P[dP]ISIDLT[dF]HLLRN[Nle]IE[Nle]ARNENQREEA[dA]KNRKYLDEV-NH2; lactam 27-30),in vitro potency to stimulate secretion of ACTH relative to the Standard,,about 4.9 times
CCCC[C@H](NC(=O)[C@H](CCCCN)NC(=O)[C@H](CCCNC(=N)N)NC(=O)[C@H](CC(C)C)NC(=O)[C@H](CC(C)C)NC(=O)[C@H](CCC(=O)O)NC(=O)[C@@H](CC(C)C)NC(=O)[C@H](CO)NC(=O)[C@H](CC(C)C)NC(=O)[C@H](CC(=O)O)NC(=O)[C@@H](NC(=O)[C@H](CO)NC(=O)[C@@H](NC(=O)[C@H]1CCCN1C(=O)[C@@H]1CCCN1C(C)=O)[C@@H](C)CC)[C@@H](C)CC)C(=O)N[C@H](C(=O)N[C@@H](CCC(=O)O)C(=O)N[C@H](C(=O)N[C@@H](CCC(=O)O)C(=O)N[C@@H](CCCCN)C(=O)N[C@@H](CCC(N)=O)C(=O)N[C@@H](CCC(=O)O)C(=O)N[C@@H](CCCCN)C(=O)N[C@@H](CCC(=O)O)C(=O)N[C@@H](CCCCN)C(=O)N[C@@H](CCC(N)=O)C(=O)N[C@H]1CCC(=O)NCCCC[C@@H](C(=O)N[C@@H](CC(N)=O)C(=O)N[C@@H](CCCNC(=N)N)C(=O)N[C@@H](CC(C)C)C(=O)N[C@@H](CC(C)C)C(=O)N[C@@H](CC(C)C)C(=O)N[C@@H](CC(=O)O)C(=O)N[C@H](C(=O)N[C@H](C(N)=O)[C@@H](C)CC)[C@@H](C)O)NC(=O)[C@@H](C)NC(=O)[C@H](C)NC1=O)[C@@H](C)CC)[C@@H](C)CC [Example 8 B D-Ala^31 analog] (Ac-P[dP]ISIDLS[dL]ELLRK[Nle]IEIEKQEKEKQEA[dA]KNRLLLDTI-NH2; lactam 27-30),in vitro potency to stimulate secretion of ACTH relative to the Standard,[1],about 2 times
CCCC[C@H](NC(=O)[C@H](CCC(=O)O)NC(=O)[C@H](CC(C)C)NC(=O)[C@H](CCCC)NC(=O)[C@H](CCC(=O)O)NC(=O)[C@H](CCCNC(=N)N)NC(=O)[C@H](CC(C)C)NC(=O)[C@H](CC(C)C)NC(=O)[C@H](Cc1c[nH]cn1)NC(=O)[C@@H](Cc1ccccc1)NC(=O)[C@@H](NC(=O)[C@H](CC(C)C)NC(=O)[C@H](CC(=O)O)NC(=O)[C@H](CC(C)C)NC(=O)[C@H](CO)NC(=O)[C@@H](NC(=O)[C@H]1CCCN1C(=O)[C@@H]1CCCN1C(C)=O)[C@@H](C)CC)[C@@H](C)O)C(=O)N[C@@H](C)C(=O)N[C@@H](CCCCN)C(=O)N[C@@H](C)C(=O)N[C@@H](CCC(=O)O)C(=O)N[C@@H](CCC(N)=O)C(=O)N[C@@H](CCC(=O)O)C(=O)N[C@@H](C)C(=O)N[C@@H](CCC(=O)O)C(=O)N[C@H]1CCC(=O)NCCCC[C@@H](C(=O)N[C@@H](CC(N)=O)C(=O)N[C@@H](CCCNC(=N)N)C(=O)N[C@@H](CC(C)C)C(=O)N[C@@H](CC(C)C)C(=O)N[C@@H](CC(C)C)C(=O)N[C@@H](CCC(=O)O)C(=O)N[C@@H](CCC(=O)O)C(=O)N[C@@H](C)C(N)=O)NC(=O)[C@@H](C)NC(=O)[C@H](C)NC1=O [Example 8 C D-Ala^32 analog] (Ac-P[dP]ISLDLT[dF]HLLRE[Nle]LE[Nle]AKAEQEAEEA[dA]KNRLLLEEA-NH2; lactam 27-30),in vitro potency to stimulate secretion of ACTH relative to the Standard,,about 6.35 times
CCCC[C@H](NC(=O)[C@H](CCC(=O)O)NC(=O)[C@H](CC(C)C)NC(=O)[C@H](CCCC)NC(=O)[C@H](CCC(=O)O)NC(=O)[C@H](CCCNC(=N)N)NC(=O)[C@H](CC(C)C)NC(=O)[C@H](CC(C)C)NC(=O)[C@H](Cc1c[nH]cn1)NC(=O)[C@@H](Cc1ccccc1)NC(=O)[C@@H](NC(=O)[C@H](CC(C)C)NC(=O)[C@H](CC(=O)O)NC(=O)[C@H](CC(C)C)NC(=O)[C@H](CO)NC(C)=O)[C@@H](C)O)C(=O)N[C@@H](C)C(=O)N[C@@H](CCCCN)C(=O)N[C@@H](C)C(=O)N[C@@H](CCC(=O)O)C(=O)N[C@@H](CCC(N)=O)C(=O)N[C@@H](CCC(=O)O)C(=O)N[C@@H](C)C(=O)N[C@@H](CCC(=O)O)C(=O)N[C@H]1CCC(=O)NCCCC[C@@H](C(=O)N[C@@H](CC(N)=O)C(=O)N[C@@H](CCCNC(=N)N)C(=O)N[C@@H](CC(C)C)C(=O)N[C@@H](CC(C)C)C(=O)N[C@@H](CC(C)C)C(=O)N[C@@H](CCC(=O)O)C(=O)N[C@@H](CCC(=O)O)C(=O)N[C@@H](C)C(N)=O)NC(=O)[C@H](C)NC(=O)[C@H](C)NC1=O [Example 16 A Ala^32 cyclic analog] (Ac-SLDLT[dF]HLLRE[Nle]LE[Nle]AKAEQEAEEAAKNRLLLEEA-NH2; lactam 24-27),"in vitro biopotency, comparison in words",,biopotency greater than the Standard peptide
CCCC[C@H](NC(=O)[C@H](CCC(=O)O)NC(=O)[C@H](CC(C)C)NC(=O)[C@H](CCCC)NC(=O)[C@H](CCC(=O)O)NC(=O)[C@H](CCCNC(=N)N)NC(=O)[C@H](CC(C)C)NC(=O)[C@H](CC(C)C)NC(=O)[C@H](Cc1c[nH]cn1)NC(=O)[C@@H](Cc1ccccc1)NC(=O)[C@@H](NC(=O)[C@H](CC(C)C)NC(=O)[C@H](CC(=O)O)NC(=O)[C@H](CC(C)C)NC(=O)[C@H](CO)NC(C)=O)[C@@H](C)O)C(=O)N[C@@H](C)C(=O)N[C@@H](CCCCN)C(=O)N[C@@H](C)C(=O)N[C@@H](CCC(=O)O)C(=O)N[C@@H](CCC(N)=O)C(=O)N[C@@H](CCC(=O)O)C(=O)N[C@@H](C)C(=O)N[C@@H](CCC(=O)O)C(=O)N[C@H]1CCC(=O)NCCCC[C@@H](C(=O)N[C@@H](CC(N)=O)C(=O)N[C@@H](CCCNC(=N)N)C(=O)N[C@@H](CC(C)C)C(=O)N[C@@H](CC(C)C)C(=O)N[C@@H](CC(C)C)C(=O)N[C@@H](CCC(=O)O)C(=O)N[C@@H](CCC(=O)O)C(=O)N[C@@H](C)C(N)=O)NC(=O)[C@@H](Cc2c[nH]cn2)NC(=O)[C@H](C)NC1=O [Example 16 A D-His^32 cyclic analog] (Ac-SLDLT[dF]HLLRE[Nle]LE[Nle]AKAEQEAEEA[dH]KNRLLLEEA-NH2; lactam 24-27),"in vitro biopotency, comparison in words",,biopotency greater than the Standard peptide
CCCC[C@H](NC(=O)[C@H](CCCCN)NC(=O)[C@H](CCCNC(=N)N)NC(=O)[C@H](CC(C)C)NC(=O)[C@H](CC(C)C)NC(=O)[C@H](CCC(=O)O)NC(=O)[C@@H](CC(C)C)NC(=O)[C@H](CO)NC(=O)[C@H](CC(C)C)NC(=O)[C@H](CC(=O)O)NC(=O)[C@@H](NC(=O)[C@H](CO)NC(C)=O)[C@@H](C)CC)C(=O)N[C@H](C(=O)N[C@@H](CCC(=O)O)C(=O)N[C@H](C(=O)N[C@@H](CCC(=O)O)C(=O)N[C@@H](CCCCN)C(=O)N[C@@H](CCC(N)=O)C(=O)N[C@@H](CCC(=O)O)C(=O)N[C@@H](CCCCN)C(=O)N[C@@H](CCC(=O)O)C(=O)N[C@@H](CCCCN)C(=O)N[C@@H](CCC(N)=O)C(=O)N[C@H]1CCC(=O)NCCCC[C@@H](C(=O)N[C@@H](CC(N)=O)C(=O)N[C@@H](CCCNC(=N)N)C(=O)N[C@@H](CC(C)C)C(=O)N[C@@H](CC(C)C)C(=O)N[C@@H](CC(C)C)C(=O)N[C@@H](CC(=O)O)C(=O)N[C@H](C(=O)N[C@H](C(N)=O)[C@@H](C)CC)[C@@H](C)O)NC(=O)[C@@H](C)NC(=O)[C@H](C)NC1=O)[C@@H](C)CC)[C@@H](C)CC [Example 16 C D-Ala^31 analog] (Ac-SIDLS[dL]ELLRK[Nle]IEIEKQEKEKQEA[dA]KNRLLLDTI-NH2; lactam 24-27),"in vitro biopotency, comparison in words",,shows increased biopotency
